Results published in patent US20220323406A1, “METHODS AND COMPOSITIONS FOR DIFFERENTIATING STEM CELLS” (Massachusetts Institute of Technology, priority 2019, published 2022).
Where a name gives a salt, the structure may show the parent alone.

How the values were obtained:
[1] = tested on: ENR+CD organoids (ISC to Paneth cell differentiation); test: Primary screen: basal (non-stimulated) lysozyme secretion LYZ.NS, 2.5-D 384-well ENR+CD organoid differentiation; assay type: cell-based, mouse
Text: (§1) High-throughput screening.

[2] = tested on: ENR+CD organoids (ISC to Paneth cell differentiation); test: Primary screen: CCh-stimulated lysozyme secretion LYZ.S, 2.5-D 384-well ENR+CD organoid differentiation; assay type: cell-based, mouse; details: primary screen
Text: as §1

ENR+CD organoids = test: Primary screen: ATP (CellTiter-Glo 3D, CTG) cell number/viability, 2.5-D 384-well ENR+CD organoids; details: primary screen; for Z.CTG: standard z score;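 on all read-outs here: compounds given at plating and again on day 3 over a 6-day differentiation from ENR+CV stem-cell-enriched precursors, ATP measured on day 6, plate median as control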
[3] = dose 10.00 uM, FC relative to plate median
[4] = dose 0.08 uM, FC vs plate median
[5] = dose 0.40 uM, FC vs plate median
[6] = dose 2.00 uM, FC vs plate median

Row | SMILES | Dose.FC.LYZ.NS (log2 fold change) ([1]; primary screen, dose 0.08 uM) | Z.LYZ.NS (standard z score) ([1]; primary screen, dose 0.08 uM) | Dose.FC.LYZ.NS (log2 fold change) ([1]; primary screen, dose 0.40 uM) | Z.LYZ.NS (standard z score) ([1]; primary screen, dose 0.40 uM) | Dose.FC.LYZ.NS (log2 fold change) ([1]; primary screen, dose 2.00 uM) | Z.LYZ.NS (standard z score) ([1]; primary screen, dose 2.00 uM) | Dose.FC.LYZ.NS (log2 fold change) ([1]; primary screen, dose 10.00 uM) | Z.LYZ.NS (standard z score) ([1]; primary screen, dose 10.00 uM) | Dose.FC.LYZ.NS ([1]; primary screen, dose 0.08 uM) | Dose.FC.LYZ.NS ([1]; primary screen, dose 0.40 uM) | Dose.FC.LYZ.NS ([1]; primary screen, dose 2.00 uM) | Dose.FC.LYZ.NS ([1]; primary screen, dose 10.00 uM) | Dose.FC.LYZ.S ([2]; dose 0.08 uM) | Dose.FC.LYZ.S ([2]; dose 0.40 uM) | Dose.FC.LYZ.S ([2]; dose 2.00 uM) | Dose.FC.LYZ.S ([2]; dose 10.00 uM) | Dose.FC.CTG (ENR+CD organoids; dose 0.08 uM) | Dose.FC.CTG (ENR+CD organoids; dose 0.40 uM) | Dose.FC.CTG (ENR+CD organoids; dose 2.00 uM) | Dose.FC.CTG (ENR+CD organoids; dose 10.00 uM) | also measured
1 | Nc1cccc2c1CN(C1CCC(=O)NC1=O)C2=O (centres unmarked) [Lenalidomide (CC-5013)] | 0.147 | 1.283 | 0.099 | 0.863 | 0.071 | 0.615 | −0.041 | −0.360 |  |  |  |  |  |  |  |  |  |  |  |  | Dose.FC.LYZ.S (log2 fold change) ([2]; dose 0.08 uM): 0.099; Dose.FC.LYZ.S (log2 fold change) ([2]; dose 0.40 uM): 0.176; Dose.FC.LYZ.S (log2 fold change) ([2]; dose 2.00 uM): 0.025; Dose.FC.LYZ.S (log2 fold change) ([2]; dose 10.00 uM): −0.045; Dose.FC.CTG (log2 fold change) (ENR+CD organoids; dose 0.08 uM): 0.046; Z.CTG (standard z score) (ENR+CD organoids; dose 0.08 uM): 0.110; Dose.FC.CTG (log2 fold change) (ENR+CD organoids; dose 0.40 uM): −0.016; Z.CTG (standard z score) (ENR+CD organoids; dose 0.40 uM): −0.037; Dose.FC.CTG (log2 fold change) (ENR+CD organoids; dose 2.00 uM): −0.250; Z.CTG (standard z score) (ENR+CD organoids; dose 2.00 uM): −0.596; Dose.FC.CTG (log2 fold change) (ENR+CD organoids; dose 10.00 uM): −0.316; Z.CTG (standard z score) (ENR+CD organoids; dose 10.00 uM): −0.754
2 | COc1ccc(-n2nc(C(N)=O)c3c2C(=O)N(c2ccc(N4CCCCC4=O)cc2)CC3)cc1 [Apixaban] |  | 0.035 |  | −0.260 |  | 0.253 |  | −0.712 | 0.004 log2 fold change | −0.030 log2 fold change | 0.029 log2 fold change | −0.082 log2 fold change | 0.081 log2 fold change | 0.029 log2 fold change | 0.051 log2 fold change | −0.096 log2 fold change | −0.089 log2 fold change | 0.111 log2 fold change | −0.060 log2 fold change | −0.077 log2 fold change | 
3 | c1ccc(CC2=NCCN2)cc1 [Tolazoline HCl] |  | 1.255 |  | 0.728 |  | 0.765 |  | −0.424 | 0.144 log2 fold change | 0.084 log2 fold change | 0.088 log2 fold change | −0.049 log2 fold change | 0.169 log2 fold change | 0.128 log2 fold change | 0.069 log2 fold change | −0.063 log2 fold change | 0.245 log2 fold change | 0.222 log2 fold change | −0.051 log2 fold change | −0.208 log2 fold change | 
4 | C[C@@H](NCCCc1cccc(C(F)(F)F)c1)c1cccc2ccccc12 [Cinacalcet HCl] |  |  |  |  |  |  |  |  | −0.062 log2 fold change | −0.023 log2 fold change | −0.022 log2 fold change | −0.091 log2 fold change | −0.084 log2 fold change | 0.039 log2 fold change | −0.025 log2 fold change | −0.130 log2 fold change | −0.444 log2 fold change | −0.298 log2 fold change | −0.012 log2 fold change | −0.451 log2 fold change | Z.LYZ.NS ([1]; primary screen, standard z score, dose 0.08 uM): −0.536; Z.LYZ.NS ([1]; primary screen, standard z score, dose 0.40 uM): −0.202; Z.LYZ.NS ([1]; primary screen, standard z score, dose 2.00 uM): −0.189; Z.LYZ.NS ([1]; primary screen, standard z score, dose 10.00 uM): −0.790
5 | O=C(Nc1cc(C(F)(F)F)cc(C(F)(F)F)c1)c1cc(Cl)ccc1O [IMD 0354] | 0.004 | 0.035 | 0.101 | 0.880 | 0.097 | 0.847 | −0.089 | −0.777 |  |  |  |  |  |  |  |  |  |  |  |  | Dose.FC.LYZ.S (log2 fold change) ([2]; dose 0.08 uM): −0.047; Dose.FC.LYZ.S (log2 fold change) ([2]; dose 0.40 uM): 0.043; Dose.FC.LYZ.S (log2 fold change) ([2]; dose 2.00 uM): 0.083; Dose.FC.LYZ.S (log2 fold change) ([2]; dose 10.00 uM): −0.128; Dose.FC.CTG (log2 fold change) (ENR+CD organoids; dose 0.08 uM): −0.007; Dose.FC.CTG (log2 fold change) (ENR+CD organoids; dose 0.40 uM): 0.117; Dose.FC.CTG (log2 fold change) (ENR+CD organoids; dose 2.00 uM): 0.076; Dose.FC.CTG (log2 fold change) (ENR+CD organoids; dose 10.00 uM): −0.480
6 | CC(C)(C)n1nc(-c2ccc(Cl)cc2)c2c(N)ncnc21 [PP2] |  |  |  |  |  |  |  |  |  |  |  |  |  |  |  |  |  |  |  |  | Z.LYZ.NS ([1]; primary screen, dose 0.08 uM, standard z score): 0.285; Z.LYZ.NS ([1]; primary screen, dose 0.40 uM, standard z score): 0.104; Z.LYZ.NS ([1]; primary screen, dose 2.00 uM, standard z score): 2.354; Dose.FC.LYZ.NS ([1]; primary screen, dose 10.00 uM, FC relative to plate median): −0.027 log2 fold change; Z.LYZ.NS ([1]; primary screen, dose 10.00 uM, standard z score): −0.235; Dose.FC.LYZ.NS ([1]; primary screen; dose 0.08 uM; FC vs plate median): 0.033 log2 fold change; Dose.FC.LYZ.NS ([1]; primary screen; dose 0.40 uM; FC vs plate median): 0.012 log2 fold change; Dose.FC.LYZ.NS ([1]; primary screen; dose 2.00 uM; FC vs plate median): 0.270 log2 fold change; Dose.FC.LYZ.S [2, 3]: 0.027 log2 fold change; Dose.FC.LYZ.S [2, 4]: 0.058 log2 fold change; Dose.FC.LYZ.S [2, 5]: 0.145 log2 fold change; Dose.FC.LYZ.S [2, 6]: 0.113 log2 fold change; Z.CTG (ENR+CD organoids; dose 0.08 uM): −1.655; Z.CTG (ENR+CD organoids; dose 0.40 uM): 0.312; Z.CTG (ENR+CD organoids; dose 2.00 uM): −0.913; Dose.FC.CTG (ENR+CD organoids; [3]): −0.246 log2 fold change; Z.CTG (ENR+CD organoids; dose 10.00 uM): −0.587; Dose.FC.CTG (ENR+CD organoids; [4]): −0.693 log2 fold change; Dose.FC.CTG (ENR+CD organoids; [5]): 0.130 log2 fold change; Dose.FC.CTG (ENR+CD organoids; [6]): −0.382 log2 fold change
